# Assay results as given in publication PMC10989020, “Preclinical characterization of a non-peptidomimetic HIV protease inhibitor with improved metabolic stability” (Antimicrobial Agents and Chemotherapy, 2024).
# Read-outs that look alike come from different tables or passages of the source.
# Legend:
# [1] = Cytotoxicity in cell lines of the non-HIV virus panel (summary); assay type: cell-based; settings: human, HepG2-NTCP, Huh7-Lunet replicon cells, NHBE, A549-ACE2, read-out: CC50 range in the corresponding cell lines
# Description: (§1) Compound cytotoxicity assessment in MT-4 cells, primary CD4+ T lymphocytes, and MDMs was carried out using a protocol identical to the antiviral assay except uninfected cells were used and tested with higher concentration ranges of test compounds. Assessment of cytotoxicity in additional human cell lines (Gal-PC3, Gal-HepG2, HEp-2, Huh-7, MRC-5, HepG2-NTCP, Huh7-Lunet HCV 1b and 2a replicons, NHBE, A549-hACE2) and primary human PBMCs (resting and stimulated with PHA/IL-2) and hepatocytes have been described previously ([19]). For all cytotoxicity assays, the CC50 value for puromycin was determined as a positive internal control and to assess assay sensitivity in each cell type. The effect of tested compounds on cell viability was measured using a CellTiter-Glo readout, performed according to the manufacturer’s recommendations.
# HIV-1 IIIb = assay: 5-day cytoprotection antiviral assay in MT-4 cells; assay type: cell-based
# [2] = Cytotoxicity across human cell types (summary ranges); assay type: cell-based; settings: read-out: mean CC50 range
# Description: as §1
# [3] = Cytotoxicity in primary human hepatocytes; assay type: cell-based
# Description: as §1
# in vitro = assay type: cell-based; settings: human
# Description: as §1
# two HIV-2 isolates = assay: Antiviral assay in PBMCs with HIV-2 clinical isolates (RT endpoint); assay type: cell-based; settings: Human immunodeficiency virus 2, PBMC, 168 h, 7-day, RT activity
# Description: Antiviral assays using fresh human PBMCs independently infected with a panel of clinical HIV-1 and HIV-2 isolates were performed by Southern Research as a contracted research study and assessed 7 days post-infection using reverse transcriptase (RT) endpoint assay. Antiviral assays using HIV-1 reporter viruses containing patient-derived sequences encoding all of PR and a portion of RT (amino acids 1–313) and conferring resistance to FDA-approved HIV PIs were performed by Monogram Biosciences Inc. (South San Francisco, CA) using their previously described Phenosense assay ([25]).
# [4] = In vivo pharmacokinetics in rat; set-up: species or system Sprague-Dawley rat
# Description: (§2) Preclinical pharmacokinetic studies were performed in male Sprague–Dawley rats, beagle dogs, and cynomolgus monkeys (three animals per dosing group in each species) following federal and Institutional Animal Care and Use Committee (IACUC) guidelines as described previously ([32]). […] The oral fraction absorbed (F%) was calculated using the formula:
# (§3) %F=( PO Dose AUC0−inf) x (IV Dose)/(IV Dose AUC0−inf) x (PO Dose)×100%
# Cytotoxicity in HEp-2 = assay type: cell-based; settings: human, HEp-2 cells
# Description: as §1
# [5] = In vivo pharmacokinetics in dog; set-up: species or system Beagle dog
# Description: as §2, §3
# [6] = Cytotoxicity in HepG2-NTCP; assay type: cell-based; settings: human, HepG2-NTCP cells
# Description: as §1
# Cytotoxicity in Gal-PC3 = assay type: cell-based; settings: human, Gal-PC3 cells
# Description: as §1
# [7] = Metabolic stability in human liver microsomes; assay type: in vitro ADME
# [8] = Predicted clearance from dog liver microsome fractions; assay type: in vitro ADME
# [9] = Cytotoxicity in unstimulated PBMCs; assay type: cell-based; settings: human, unstimulated (resting) PBMCs
# Description: as §1
# [10] = In vivo pharmacokinetics in monkey; settings: cynomolgus monkey
# Description: as §2, §3
# HIV-1IIIb = assay: Two-drug in vitro combination assay in MT-2 cells (MacSynergy II); assay type: cell-based
# Description: Anti-HIV-1 assays evaluating the in vitro antiviral effect of two-drug combinations were performed in MT-2 cells as previously described ([26]). Data were normalized to positive and negative controls in each plate and expressed as a percentage of protection from CPE-dependent cell death and analyzed with the MacSynergy II software. Combination data were analyzed at the 99% confidence level, with synergy/antagonism volumes defined as follows: high synergy (>100 µM^2%), moderate synergy (50 to <100 uM^2%), additivity (>−50 to <50 µM^2%), and antagonism (<−50 µM^2%).
# [11] = Cytotoxicity in uninfected MT-4 cells; assay type: cell-based, human; settings: human, uninfected (mock infected) MT-4 T cells, MT-4 T cell line
# Description: as §1
# [12] = Cytotoxicity in monocyte-derived macrophages; assay type: cell-based; settings: human, uninfected (mock infected) monocyte-derived macrophages
# Description: as §1
# [13] = target: non-HIV aspartic proteases (BACE, cathepsin D, cathepsin E, pepsin, renin, and napsin); assay type: biochemical; settings: IC50 considered equal to Ki(app)
# Description: Except for the substrate used in the renin assay, all fluorogenic substrates and recombinant enzymes were purchased from R&D Systems and the assays were performed according to the manufacturer’s recommended procedure with minor changes. For the BACE1 assay, recombinant human BACE1 (50 nM) and test compound at various concentrations were added to a reaction buffer containing 20 mM sodium acetate at pH 4.8 with 0.06% Triton X-100 and 1% DMSO. After a 15-minute pre-incubation, the enzymatic reaction was initiated by the addition of fluorogenic substrate to a final concentration of 1 µM and a total volume of 100 µL. For the Cat D assay, after a 15-minute pre-incubation, the enzymatic reaction was initiated by the addition of the fluorogenic substrate to a final concentration of 4 µM and a total volume of 100 µL. […] Activated Cat E (0.5 nM) and test compound at various concentrations were added to the assay buffer containing 100 mM sodium acetate at pH 3.5 with 200 mM sodium chloride and 1% DMSO. After a 15-minute pre-incubation, the enzymatic reaction was initiated by the addition of the fluorogenic substrate to a final concentration of 20 µM and a total volume of 100 µL. […]
# Enzymatic assay data were analyzed in GraphPad Prism (version 9.3.0) by curve fitting with a four-parameter logistic equation to determine inhibitor half-maximal inhibitory concentration (IC50) values.
# [14] = Cytotoxicity in Gal-HepG2; assay type: cell-based; settings: human, Gal-HepG2 cells
# Description: as §1
# HCV-2a = assay: microbe, parasite or virus in culture; settings: Hepatitis C virus, Huh-7
# [15] = system: HBV, HCV, RSV, SARS-CoV-2; assay: Antiviral activity against panel of non-HIV viruses (summary); settings: read-out: EC50 range across non-HIV viruses
# Description: Antiviral assays using appropriate cell lines infected with non-HIV viruses were also performed. […] The hepatitis B virus (HBV) surface antigen (HBsAg) antiviral assay was performed as previously described ([28]) using ND-654 as a positive control. The respiratory syncytial virus (RSV) A2 HEp-2 antiviral assay was performed as previously described ([29]) using YM-53403 as a positive control. The severe acute respiratory syndrome coronavirus 2 (SARS-CoV-2) antiviral assay was performed as described previously ([30]) using remdesivir as a positive control.
# Cytotoxicity in MRC-5 = assay type: cell-based; settings: human, MRC-5 cells
# Description: as §1
# [16] = Cytotoxicity in CD4+ T-lymphocytes; assay type: cell-based; settings: human, uninfected (mock infected) primary CD4+ T lymphocytes
# Description: as §1
smiles,measurement,setting,value
CC(C)(CC1(c2ccc(-c3cnn(C4CC4)n3)cc2)NC(=N)N(C(COC(=O)NC2(C(F)F)CC2)c2ccc(Cl)c(-c3ncnn3C(F)F)c2)C1=O)C(F)(F)F (stereo not shown) [GS-9770],CC50,[1],4.7 to 15.1 µM
same,EC50,"HIV-1 IIIb; Human immunodeficiency virus 1, IIIB, T-cell, 120 h",0.011 ± 0.002 µM
same,95% effective concentration (EC95),HIV-1 IIIb; calculated from MT-4/HIV-1IIIb EC50 and Hill coefficient,0.0216 µM
same,CC50,"[2]; Gal-HepG2 and MRC-5 cells, five human cell lines (Gal-PC3, HEp-2, Huh7, Gal-HepG2, MRC-5)",13 to 20 µM
same,CC50,"[2]; human, human cell lines and primary cells (15 cell types), across 15 different cell types",4.7 to 34 µM
same,CC50,[2]; primary human hepatocytes and PBMCs (stimulated and unstimulated),9.1 to 34 µM
same,CC50,[3],34 ± 16 µM
same,CC50,in vitro,15.1 ± 3 µM
same,EC50,two HIV-2 isolates,0.026 µM
same,F% (oral bioavailability),[4]; 1 mg/kg IV and 5 mg/kg PO,45.9 ± 9.8%
same,tolerability at the doses tested,"[4]; 1 mg/kg IV, 4–5 mg/kg PO",well tolerated
same,clearance,"[4]; male, Sprague-Dawley, plasma, 1 mg/kg IV",0.21 L/h/kg
same,half-life,"[4]; male, Sprague-Dawley, plasma, 1 mg/kg IV and 5 mg/kg PO, read-out: Terminal t1/2 (converted)",10.6 ± 1.4 h
same,Vd,"[4]; male, Sprague-Dawley, plasma, 1 mg/kg IV, read-out: Vss",2.7 ± 0.3 L/kg
same,bioavailability,"[4]; male, Sprague-Dawley, plasma, oral, 5 mg/kg, 1 mg/kg IV and 5 mg/kg PO, read-out: F% (oral bioavailability)",49%
same,CC50,Cytotoxicity in HEp-2,17 ± 2 µM
same,CL,"[5]; 1 mg/kg IV, 1 mg/kg",1.1 ± 0.3 L/h/kg
same,tolerability at the doses tested,"[5]; 1 mg/kg IV, 4–5 mg/kg PO",well tolerated
same,bioavailability,"[5]; beagle, plasma, 1 mg/kg IV and 5 mg/kg PO, read-out: F% (oral bioavailability)",100 ± 20%
same,half-life,"[5]; beagle, plasma, 1 mg/kg IV and 5 mg/kg PO, read-out: Terminal t1/2 (converted)",6.7 ± 0.6 h
same,Vd,"[5]; beagle, plasma, 1 mg/kg IV, read-out: Vss",5 ± 0.5 L/kg
same,clearance,"[5]; beagle, plasma, iv, 1 mg/kg, 1 mg/kg IV",1.13 L/h/kg
same,CC50,[6],8.4 ± 2 µM
same,CC50,Cytotoxicity in Gal-PC3,15 ± 4 µM
same,Eh% (percent predicted hepatic extraction),[7],9%
same,Predicted CL (predicted human clearance),[7],0.11 L/h/kg
same,half-life,[7]; read-out: T½ in the presence of human liver microsomes,> 6.58 h
same,in vitro predicted blood CL,[8],0.72 L/h/kg
same,CC50,[9],9.1 ± 5.5 µM
same,tolerability at the doses tested,"[10]; 1 mg/kg IV, 4–5 mg/kg PO",well tolerated
same,clearance,"[10]; plasma, 1 mg/kg IV",0.34 L/h/kg
same,bioavailability,"[10]; plasma, 1 mg/kg IV and 4 mg/kg PO, read-out: F% (oral bioavailability)",100 ± 34%
same,half-life,"[10]; plasma, 1 mg/kg IV and 4 mg/kg PO, read-out: Terminal t1/2 (converted)",7.4 ± 0.2 h
same,Vd,"[10]; plasma, 1 mg/kg IV, read-out: Vss",2.6 ± 0.8 L/kg
same,Antagonism volume,HIV-1IIIb,−3 ± 3 µM^2.%
same,Combination effect,HIV-1IIIb,Additive
same,Synergy volume,HIV-1IIIb,23 ± 14 µM^2.%
same,CC50,[11],6.6 ± 1.3 µM
same,CC50,[12],16 ± 3 µM
same,Ki,"[13]; read-out: Ki(app), lower end of range over six non-HIV proteases",0.106 µM
same,Ki,"[13]; read-out: Ki(app), upper end of range over six non-HIV proteases",> 100 µM
same,CC50,[14],13 ± 6 µM
same,EC50,HCV-2a,10.4 ± 0.3 µM
same,EC50,[15],2.5 to 34 µM
same,CC50,Cytotoxicity in MRC-5,20 ± 6 µM
same,CC50,[16],9 ± 0.4 µM
